The values that follow come from patent US10919852B2, “Immunomodulator compounds” (CHEMOCENTRYX, INC., priority 2017, dated 2021).

The IC50 is the concentration needed to halve the response being measured.

Sequence of human PD-L1 / Human PD-1 (Q9NZQ7 19-239): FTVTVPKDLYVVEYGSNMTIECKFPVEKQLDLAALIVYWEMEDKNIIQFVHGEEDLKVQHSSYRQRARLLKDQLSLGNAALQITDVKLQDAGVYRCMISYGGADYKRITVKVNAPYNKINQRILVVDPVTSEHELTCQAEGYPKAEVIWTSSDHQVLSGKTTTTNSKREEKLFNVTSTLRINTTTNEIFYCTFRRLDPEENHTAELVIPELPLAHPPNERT

The experiment concerns the target human PD-L1 / Human PD-1 (Homo sapiens (Human), UniProt Q9NZQ7). Nature of the experiment: Enzyme-Linked Immunosorbent Assay (ELISA), PD-1/PD-L1 binding. Particulars: plate-coated human PD-L1, biotinylated human PD-1. A digest of the protocol:
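Plates were coated with human PD-L1 at […]. Biotinylated human PD-1 (0.3 μg/mL) was added with 1:5 serially diluted compound for 1 h at 37 °C. Bound PD-1 was detected with streptavidin-HRP (1 h) and TMB (20 min), with absorbance read at 450 nm.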
Compound `Cc1c(OCCCN2CCC(O)CC2)cccc1-c1cccc2c1CC[C@@H]2Oc1cc(OCc2cncc(C#N)c2)c(CN[C@@H]2CCCC[C@@H]2O)cc1Cl` came in with a 50% inhibitory concentration (IC50) of less than 5 nM.
In turn, `Cc1c(OCCCN2CC3(CC(O)C3)C2)cccc1-c1cccc2c1CC[C@@H]2Oc1cc(OCc2cncc(C#N)c2)c(CN[C@H](C(=O)O)[C@@H](C)O)cc1Cl` returned an IC50 of less than 5 nM.
Consider `COC(=O)[C@@H](NCc1cc(Cl)c(O[C@H]2CCc3c(-c4cccc(OCCCN5CCC(O)CC5)c4C)cccc32)cc1OCc1cncc(C#N)c1)[C@@H](C)O`, for which the IC50 fell in the range of 5 to 500 nM.
As for `Cc1c(OCCCN2[C@H](C)CCC[C@@H]2C)cccc1-c1cccc2c1CC[C@@H]2Oc1cc(OCc2cc(C#N)cc(C#N)c2)c(CNC[C@H]2CCC(=O)N2)cc1Cl`, the figure is 5 to 500 nM.
`Cc1c(OCCCN2CC(F)(F)C2)cccc1-c1cccc2c1CC[C@@H]2Oc1cc(OCc2cc(C#N)cc(C#N)c2)c(CNC[C@H]2CCC(=O)N2)cc1Cl` had an IC50 of 5 to 500 nM.
In turn, `N#Cc1cc(C#N)cc(COc2cc(O[C@H]3CCc4c(-c5cccc(OCCCN6CCC(F)CC6)c5Cl)cccc43)c(Cl)cc2CN[C@H]2CCC(=O)NC2)c1` registered an IC50 of 5 to 500 nM.
Turning to `CC1(F)CCN(CCCOc2cccc(-c3cccc4c3CC[C@@H]4Oc3cc(OCc4cc(C#N)cc(C#N)c4)c(CN[C@H]4CCC(=O)NC4)cc3Cl)c2Cl)CC1`, the half-maximal inhibitory concentration (IC50) fell in the range of 5 to 500 nM.
For `Cc1c(OCCCN2CCCCC2)cccc1-c1cccc2c1CC[C@@H]2Oc1cc(OCc2cncc(C#N)c2)c(CNC[C@H]2CCC(=O)N2)cc1Cl`, the IC50 is less than 5 nM.
The compound `Cc1c(OCCCN2CCCCC2)cccc1-c1cccc2c1CC[C@@H]2Oc1cc(OCc2cncc(C#N)c2)c(CNC[C@@H]2CCC(=O)N2)cc1Cl` displayed an IC50 of less than 5 nM.
Consider `Cc1c(OCCCN2CCC(C)(O)CC2)cccc1-c1cccc2c1CC[C@@H]2Oc1cc(OCc2cc(C#N)cc(C#N)c2)c(CNC[C@@H]2CCC(=O)N2)cc1Cl`, for which the IC50 was less than 5 nM.
As for `N#Cc1cncc(COc2cc(O[C@H]3CCc4c(-c5cccc(OCCCN6CCC6)c5Cl)cccc43)c(Cl)cc2CNC[C@@H]2CCC(=O)N2)c1`, the figure is less than 5 nM; as for `CN1CCC(COc2cccc(-c3cccc4c3CC[C@@H]4Oc3cc(OCc4cncc(C#N)c4)c(CNC[C@@H]4CCC(=O)N4)cc3Cl)c2Cl)C1` (stereo partly drawn), less than 5 nM; as for `Cc1c(OCCCN2CCCC[C@H]2C)cccc1-c1cccc2c1CC[C@@H]2Oc1cc(OCc2cc(C#N)cc(C#N)c2)c(CNC[C@H]2CCC(=O)N2)cc1Cl`, less than 5 nM.
The compound `Cc1c(OCCCN2CCC(C)(C)CC2)cccc1-c1cccc2c1CC[C@@H]2Oc1cc(OCc2cc(C#N)cc(C#N)c2)c(CN[C@H]2CCC(=O)NC2)cc1Cl` had an IC50 of 5 to 500 nM.
As to `CC1(F)CCN(CCCOc2cccc(-c3cccc4c3CC[C@@H]4Oc3cc(OCc4cncc(C#N)c4)c(CN4CC5(C4)NC(=O)NC5=O)cc3Cl)c2Cl)CC1`, the IC50 was 5 to 500 nM.
As for `Cc1c(OCCCN2CCC(F)CC2)cccc1-c1cccc2c1CC[C@@H]2Oc1cc(OCc2cc(C#N)cc(C#N)c2)c(CN[C@H]2CCCCNC2=O)cc1Cl`, the figure is 5 to 500 nM; as for `CC1(F)CCN(CCCOc2cccc(-c3cccc4c3CC[C@@H]4Oc3cc(OCc4cncc(C#N)c4)c(CN4CCC5(C4)NC(=O)NC5=O)cc3Cl)c2Cl)CC1` (stereo partly drawn), 5 to 500 nM.
`CC1(F)CCN(CCCOc2cccc(-c3cccc4c3CC[C@@H]4Oc3cc(OCc4cncc(C#N)c4)c(CN[C@@H]4CCC(=O)NC4)cc3Cl)c2Cl)CC1` had an IC50 of 5 to 500 nM.
`Cc1c(OCCCN2CCCC[C@@H]2C)cccc1-c1cccc2c1CC[C@@H]2Oc1cc(OCc2cc(C#N)cc(C#N)c2)c(CNC[C@H]2CCC(=O)N2)cc1Cl` came in with an IC50 of 5 to 500 nM.
For `CC1(F)CCN(CCCOc2cccc(-c3cccc4c3CC[C@@H]4Oc3cc(OCc4cncc(C#N)c4)c(CNC[C@H]4CCC(=O)N4)cc3Cl)c2Cl)CC1`, the IC50 is 5 to 500 nM.
As for `Cc1c(OCCCN2CCCC[C@@H]2C)cccc1-c1cccc2c1CC[C@@H]2Oc1cc(OCc2cc(C#N)cc(C#N)c2)c(CNC[C@@H]2CCC(=O)N2)cc1Cl`, the IC50 is less than 5 nM.
In turn, `Cc1c(OCCCN2CCC2)cccc1-c1cccc2c1CC[C@@H]2Oc1cc(OCc2cc(C#N)cc(C#N)c2)c(CNC[C@H]2CCC(=O)N2)cc1Cl` had an IC50 of less than 5 nM.
`CC1(F)CCN(CCCOc2cccc(-c3cccc4c3CC[C@@H]4Oc3cc(OCc4cncc(C#N)c4)c(CNC[C@@H]4CCC(=O)N4)cc3Cl)c2Cl)CC1` gave a half-inhibitory concentration (IC50) of less than 5 nM.
Turning to `Cc1c(OCCCN2CCC(C)(F)CC2)cccc1-c1cccc2c1CC[C@@H]2Oc1cc(OCc2cc(C#N)cc(C#N)c2)c(CN2CC3(C2)NC(=O)NC3=O)cc1Cl`, the IC50 is 500 to 20000 nM.
In turn, `Cc1c(OCCCN2CCC(C)(F)CC2)cccc1-c1cccc2c1CC[C@@H]2Oc1cc(OCc2cc(C#N)cc(C#N)c2)c(CN[C@H]2CCC(=O)NC2)cc1Cl` came in with an IC50 of 5 to 500 nM.
Regarding `Cc1c(OCCCN2CCC(C)(F)CC2)cccc1-c1cccc2c1CC[C@@H]2Oc1cc(OCc2cc(C#N)cc(C#N)c2)c(CN[C@@H]2CCC(=O)NC2)cc1Cl`, the IC50 is 5 to 500 nM.
Regarding `Cc1c(OCCCN2CCC(O)CC2(C)C)cccc1-c1cccc2c1CC[C@@H]2Oc1cc(OCc2cc(C#N)cc(C#N)c2)c(CN[C@H]2CCC(=O)NC2)cc1Cl` (stereo partly drawn), the IC50 is less than 5 nM.
As for `Cc1c(OCCCN2CCCC2)cccc1-c1cccc2c1CC[C@@H]2Oc1cc(OCc2cc(C#N)cc(C#N)c2)c(CN[C@H]2CCC(=O)NC2)cc1Cl`, the figure is less than 5 nM; as for `Cc1c(OCCCN2CCC(F)CC2)cccc1-c1cccc2c1CC[C@@H]2Oc1cc(OCc2cc(C#N)cc(C#N)c2)c(CNCC(=O)NS(C)(=O)=O)cc1Cl`, less than 5 nM.
For `Cc1c(OCCCN2CCC(C)(F)CC2)cccc1-c1cccc2c1CC[C@@H]2Oc1cc(OCc2cc(C#N)cc(C#N)c2)c(CN2CCC3(C2)NC(=O)NC3=O)cc1Cl` (stereo partly drawn), the half-maximal inhibitory concentration (IC50) was 5 to 500 nM.
The compound `Cc1c(OCCCN2CCC(C)(F)CC2)cccc1-c1cccc2c1CC[C@@H]2Oc1cc(OCc2cc(C#N)cc(C#N)c2)c(CN[C@H]2CCC[C@@H]2O)cc1Cl` showed an IC50 of 5 to 500 nM.
In turn, `Cc1c(OCCCN2CCCCC2(C)C)cccc1-c1cccc2c1CC[C@@H]2Oc1cc(OCc2cc(C#N)cc(C#N)c2)c(CNC[C@H]2CCC(=O)N2)cc1Cl` had a half-inhibitory concentration (IC50) of 5 to 500 nM.
On to `Cc1c(OCCCN2CCC(C)(F)C2)cccc1-c1cccc2c1CC[C@@H]2Oc1cc(OCc2cc(C#N)cc(C#N)c2)c(CN[C@H]2CCC(=O)NC2)cc1Cl` (stereo partly drawn), for which the IC50 lay within 5 to 500 nM.
`CCN1CCC(COc2cccc(-c3cccc4c3CC[C@@H]4Oc3cc(OCc4cncc(C#N)c4)c(CNC[C@@H]4CCC(=O)N4)cc3Cl)c2Cl)C1` (stereo partly drawn) came in with an IC50 of less than 5 nM.
With `CC(C)N1CCC(COc2cccc(-c3cccc4c3CC[C@@H]4Oc3cc(OCc4cncc(C#N)c4)c(CNC[C@@H]4CCC(=O)N4)cc3Cl)c2Cl)C1` (stereo partly drawn), the IC50 is less than 5 nM.
`CC(C)N1CCC(COc2cccc(-c3cccc4c3CC[C@@H]4Oc3cc(OCc4cncc(C#N)c4)c(CN[C@H]4CCC(=O)NC4)cc3Cl)c2Cl)C1` (stereo partly drawn): the IC50 is less than 5 nM.
For the compound `Cc1c(OCCCN2CCC(F)CC2)cccc1-c1cccc2c1C[C@H](F)[C@@H]2Oc1cc(OCc2cc(C#N)cc(C#N)c2)c(CN[C@H]2CCC(=O)NC2)cc1Cl`, the IC50 fell in the range of 5 to 500 nM.
As for `Cc1c(OCCCN2CCC(C)(F)CC2)cccc1-c1cccc2c1C[C@H](F)[C@@H]2Oc1cc(OCc2cc(C#N)cc(C#N)c2)c(CN[C@H]2CCC(=O)NC2)cc1Cl`, the figure is 5 to 500 nM; as for `Cc1c(OCCCN2CCCC2(C)C)cccc1-c1cccc2c1CC[C@@H]2Oc1cc(OCc2cc(C#N)cc(C#N)c2)c(CN[C@H]2CCC(=O)NC2)cc1Cl`, less than 5 nM.
